From patent US11008334B2, “Compositions and methods for treating cancer” (The Regents of the University of California, priority 2012, dated 2021) come the findings set out here.

This assay has as its target T1, K-RasG12C (1-169) (Homo sapiens, UniProt P01116, G12C).
T1 construct: Un-tagged recombinant K-Ras G12C (1-169) at 4 μM in Buffer A; hexahistidine (cleaved yes); made in house; host or cells: Escherichia coli BL21 (DE)
Put plainly: Mass spectrometric screen for extent of covalent labeling. The note with it: for percent covalent labeling at 10 µM: 10 micromolar; for Labeling % (10 micM) 24h: Table 5, 10 micM compound, (plate) or (single) measurement. In kind it is binding. As for the experimental part:
Un-tagged recombinant K-Ras G12C (1-169) at 4 μM in Buffer A was reacted with inhibitors at 200 μM or 10 μM (2% DMSO final). At 2, 6, and 24 hrs, 10 μL aliquots were removed and the reactions were stopped by addition of 1 μL 2% formic acid. The extent of modification was determined by mass spectrometry.

Where [1] appears, read: 2 h, 2 hrs, read-out: Percent reduction in activity of compound at 10 micromolar relative to control (no compound), 2 hrs.
[2] abbreviates: 6 h, 6 hrs, read-out: Percent reduction in activity of compound at 10 micromolar relative to control (no compound), 6 hrs.
[3] abbreviates: 24 h, 24 hrs, read-out: Percent reduction in activity of compound at 10 micromolar relative to control (no compound), 24 hrs.

Read-outs that look alike come from different tables or passages of the source. Where only a bound is given, the exact number is not on record here.

As to `C=CC(=O)N1CCN(C(=O)CNc2cc(C(F)(F)F)c(Cl)cc2OC)CC1` [Ras-066], the percent covalent labeling at 10 µM reads like this: under setting [1], at most 5%; under setting [2], at most 5%; under setting [3], 5 to 20%.
In the case of `C=CS(=O)(=O)NC1CCN(C(=O)COc2ccc(Cl)cc2C(F)(F)F)CC1` [Ras-067], the percent covalent labeling at 10 µM under setting [1] is at most 5%, the percent covalent labeling at 10 µM under setting [2] was at most 5% and the percent covalent labeling at 10 µM under setting [3] was 5 to 20%.
Turning to `C=CS(=O)(=O)NC1CCN(CC(=O)Nc2cc(Cl)c(Cl)cc2I)CC1` [Ras-068], the percent covalent labeling at 10 µM under setting [1] is at most 5%, the percent covalent labeling at 10 µM under setting [2] is at most 5% and the percent covalent labeling at 10 µM under setting [3] is at most 5%.
For `C#CCOc1cc(OCC(=O)N2CCC(NS(=O)(=O)C=C)CC2)c(Cl)cc1Cl` [Ras-069], the “Labeling % (10 micM) 24h” value is on record as “+++ (single) (20%< +++ <=40%)”. Besides, the percent covalent labeling at 10 µM under setting [1] is at most 5%. Under setting [2], the percent covalent labeling at 10 µM was 5 to 20%. Also, the percent covalent labeling at 10 µM under setting [3] was over 60%.
Consider `C=CS(=O)(=O)NC1CCN(C(=O)COc2cc(CCO)c(Cl)cc2Cl)CC1` [Ras-070], for which the percent covalent labeling at 10 µM was at most 5% under setting [1], at most 5% under setting [2] and 20 to 40% under setting [3].
`C#Cc1cc(OCC(=O)N2CCC(NS(=O)(=O)C=C)CC2)c(Cl)cc1Cl` [Ras-071]: the percent covalent labeling at 10 µM under setting [1] was at most 5%, the percent covalent labeling at 10 µM under setting [2] was at most 5% and the percent covalent labeling at 10 µM under setting [3] was in the range of 40 to 60%.
In the case of `C=CS(=O)(=O)N1CCC(Nc2cc(-c3cc(Cl)c(Cl)cc3I)ccn2)CC1` [Ras-072], the percent covalent labeling at 10 µM under setting [1] is at most 5%, the percent covalent labeling at 10 µM under setting [2] was at most 5% and the percent covalent labeling at 10 µM under setting [3] is at most 5%.
Turning to `C=CC(=O)N1CCN(C(=O)CNc2cc(Cl)c(Cl)cc2O)CC1` [Ras-073], the percent covalent labeling at 10 µM by setting is: under setting [2], 20 to 40%; under setting [3], over 60%.
Take `C=CS(=O)(=O)NC1CCN(C(=O)COc2cc(C(C)(C)O)c(Cl)cc2Cl)CC1` [Ras-074]: the percent covalent labeling at 10 µM under setting [3] was 40 to 60%.
As for `C=CS(=O)(=O)NC1CCN(C(=O)CNc2cc(OC)c(Cl)cc2I)CC1` [Ras-077], the percent covalent labeling at 10 µM was 5 to 20% under setting [2] and over 60% under setting [3].
Turning to `C=CS(=O)(=O)NC1CCN(C(=O)CNc2cc(I)c(Cl)cc2OC)CC1` [Ras-079], the “Labeling % (10 micM) 24h” value is recorded as “+++++ (single) (60% < +++++)”. The percent covalent labeling at 10 µM under setting [1] lay within 20 to 40%. Also, under setting [2], the percent covalent labeling at 10 µM was over 60%. Besides, the percent covalent labeling at 10 µM under setting [3] was over 60%.
As to `C=CC(=O)N1CCN(C(=O)CNc2cc(I)c(Cl)cc2OC)CC1` [Ras-080], the percent covalent labeling at 10 µM under setting [3] lay in the range of 20 to 40%.
Take `C=CS(=O)(=O)NC1CCN(C(=O)CNc2cc(-c3ccccc3)c(Cl)cc2OC)CC1` [Ras-082]: the percent covalent labeling at 10 µM is, setting by setting: under setting [2], 20 to 40%; under setting [3], over 60%.
In the case of `C=CS(=O)(=O)NC1CCN(C(=O)CNc2cc(I)c(Cl)cc2O)CC1` [Ras-084], the percent covalent labeling at 10 µM runs as follows: under setting [1], 20 to 40%; under setting [2], over 60%; under setting [3], over 60%.
For the compound `C=CS(=O)(=O)NC1CCN(C(=O)CNc2cc(CC)c(Cl)cc2OC)CC1` [Ras-085], the percent covalent labeling at 10 µM is 5 to 20% under setting [1], 20 to 40% under setting [2] and over 60% under setting [3].
Turning to `C=CS(=O)(=O)NC1CCN(C(=O)CNc2cc(-c3ccccc3)c(Cl)cc2I)CC1` [Ras-086], the percent covalent labeling at 10 µM under setting [3] was in the range of 40 to 60%.
Turning to `C=CS(=O)(=O)NC1CCN(C(=O)COc2c(Cl)cc(Cl)c3cccnc23)CC1` [UP-I-154A], the percent covalent labeling at 10 µM runs as follows: under setting [1], at most 5%; under setting [2], at most 5%; under setting [3], at most 5%.
On to `C=CS(=O)(=O)NC1CCN(C(=O)CSc2cn(CC)c3ccccc23)CC1` [UP-I-154B], for which the percent covalent labeling at 10 µM is, setting by setting: under setting [1], at most 5%; under setting [2], at most 5%; under setting [3], at most 5%.
